ChEMBL document CHEMBL4725399, “Galangin ameliorated pulmonary fibrosis in vivo and in vitro by regulating epithelial-mesenchymal transition” (Bioorg Med Chem, 2020)
Active and inactive are the calls of the source. The calls are words filed in the database; no cut-off is given here.

Legend:
Mus musculus [1] = assay: Antifibrotic activity in C57BL/6 mouse model of bleomycin-induced lung fibrosis assessed as reduction in weight loss at 50 mg/kg dosed via oral gavage and measured for 7 to 14 days; assay type: functional, organism-based; conditions: time day 7-14
Mus musculus [2] = assay: Antifibrotic activity in C57BL/6 mouse model of bleomycin-induced lung fibrosis assessed as reduction in weight loss at 25 mg/kg dosed via oral gavage and measured for 7 to 14 days; assay type: functional, organism-based; conditions: time day 7-14
Mus musculus [3] = assay: Antifibrotic activity in po dosed C57BL/6 mouse model of bleomycin-induced lung fibrosis assessed as reduction in weight loss after 7 to 14 days; assay type: functional, organism-based; conditions: dose mg/kg 25-50, time day 7-14
Mus musculus [4] = assay: Antifibrotic activity in C57BL/6 mouse model of bleomycin-induced lung fibrosis assessed as reduction in CD4+CD69+ T-cells at 50 mg/kg dosed via oral gavage for 14 days by flow cytometry analysis; assay type: functional, organism-based; conditions: time 14.0 day
Mus musculus [5] = assay: Antifibrotic activity in C57BL/6 mouse model of bleomycin-induced lung fibrosis assessed as reduction in CD4+CD69+ T-cells at 25 mg/kg dosed via oral gavage for 14 days by flow cytometry analysis; assay type: functional, organism-based; conditions: dose 25.0 […], time 14.0 day
Mus musculus [6] = assay: Antifibrotic activity in C57BL/6 mouse model of bleomycin-induced lung fibrosis assessed as reduction in CD8+CD69+ T-cells at 50 mg/kg dosed via oral gavage for 14 days by flow cytometry analysis; assay type: functional, organism-based; conditions: time 14.0 day
Mus musculus [7] = assay: Antifibrotic activity in C57BL/6 mouse model of bleomycin-induced lung fibrosis assessed as reduction in CD8+CD69+ T-cells at 25 mg/kg dosed via oral gavage for 14 days by flow cytometry analysis; assay type: functional, organism-based; conditions: time 14.0 day
Mus musculus [8] = assay: Antifibrotic activity in C57BL/6 mouse model of bleomycin-induced lung fibrosis assessed as reduction in dendritic cells at 50 mg/kg dosed via oral gavage for 14 days by flow cytometry analysis; assay type: functional, organism-based; conditions: time 14.0 day
Mus musculus [9] = assay: Antifibrotic activity in C57BL/6 mouse model of bleomycin-induced lung fibrosis assessed as reduction in dendritic cells at 25 mg/kg dosed via oral gavage for 14 days by flow cytometry analysis; assay type: functional, organism-based; conditions: time 14.0 day
Mus musculus [10] = assay: Inhibition of epithelial-mesenchymal transition in C57BL/6 mouse model of bleomycin-induced lung fibrosis assessed as decrease in alpha-SMA protein expression in lung tissue at 25 to 50 mg/kg dosed via oral gavage for 14 days by Western blotting analysis; assay type: functional, organism-based; conditions: dose mg/kg 25-50, time 14.0 day
Mus musculus [11] = assay: Inhibition of epithelial-mesenchymal transition in C57BL/6 mouse model of bleomycin-induced lung fibrosis assessed as decrease in vimentin protein expression in lung tissue at 25 to 50 mg/kg dosed via oral gavage for 14 days by Western blotting analysis; assay type: functional, organism-based; conditions: dose mg/kg 25-50, time 14.0 day
Mus musculus [12] = assay: Inhibition of epithelial-mesenchymal transition in C57BL/6 mouse model of bleomycin-induced lung fibrosis assessed as increase in E-cadherin protein expression in lung tissue at 25 to 50 mg/kg dosed via oral gavage for 14 days by Western blotting analysis; assay type: functional, organism-based; conditions: dose mg/kg 25-50, time 14.0 day
Mus musculus [13] = assay: Antifibrotic activity in C57BL/6 mouse model of bleomycin-induced lung fibrosis assessed as inhibition of pathological changes by measuring collagen deposition in lung tissue at 25 to 50 mg/kg dosed via oral gavage for 14 days by H and E staining-based histopathological analysis; assay type: functional, organism-based; conditions: dose mg/kg 25-50, time 14.0 day
Mus musculus [14] = assay: Antifibrotic activity in C57BL/6 mouse model of bleomycin-induced lung fibrosis assessed as inhibition of pathological changes by measuring collagen deposition in lung tissue at 25 to 50 mg/kg dosed via oral gavage for 14 days by Masson's trichrome staining-based histopathological analysis; assay type: functional, organism-based; conditions: dose mg/kg 25-50, time 14.0 day
Mus musculus [15] = assay: Antifibrotic activity in bleomycin-induced C57BL/6 mouse model of lung fibrosis assessed as reduction in Ashcroft score at 25 to 50 mg/kg dosed via oral gavage for 14 days by H and E and Masson's trichrome staining based histopathological analysis; assay type: functional, organism-based; conditions: dose mg/kg 25-50, time 14.0 day
Mus musculus [16] = assay: Antifibrotic activity in bleomycin-induced C57BL/6 mouse model of lung fibrosis assessed as reduction in fibroblast differentiation by measuring alpha-SMA at 25 to 50 mg/kg dosed via oral gavage for 14 days by measuring reduction in alpha-SMA protein expression by immunohistochemical analysis; assay type: functional, organism-based; conditions: dose mg/kg 25-50, time 14.0 day
NIH3T3 [17] = assay: Cytotoxicity against mouse NIH3T3 cells assessed as reduction in cell viability after 24 to 72 hrs by MTT assay; assay type: cell-based; conditions: time 24-72 hrs
NIH3T3 [18] = assay: Antifibrotic activity in mouse NIH3T3 cells assessed as decrease in TGF-beta1 induced alpha-SMA protein expression at 40 uM after 24 hrs by Western blotting analysis; assay type: functional, cell-based
NIH3T3 [19] = assay: Antifibrotic activity in mouse NIH3T3 cells assessed as decrease in TGF-beta1 induced MMP-9 protein expression at 40 uM after 24 hrs by Western blotting analysis; assay type: functional, cell-based
NIH3T3 [20] = assay: Antifibrotic activity in mouse NIH3T3 cells assessed as up regulation of TGF-beta1 inhibited E-cadherin protein expression at 40 uM after 24 hrs by Western blotting analysis; assay type: functional, cell-based
Mus musculus [21] = assay: Antifibrotic activity in C57BL/6 mouse model of bleomycin-induced lung fibrosis assessed as inhibition of pathological changes by measuring inflammatory infiltration in lung tissue at 25 to 50 mg/kg dosed via oral gavage for 14 days by H and E staining-based histopathological analysis; assay type: functional, organism-based; conditions: dose mg/kg 25-50, time 14.0 day
NIH3T3 [22] = assay: Antifibrotic activity in mouse NIH3T3 cells assessed as reduction in TGF-beta1 induced myofibroblast differentiation by measuring reduction in alpha-SMA protein expression at 40 uM after 24 hrs by immunofluorescence staining analysis; assay type: functional, cell-based
A549 [23] = assay: Cytotoxicity against human A549 cells assessed as reduction in cell viability after 24 to 72 hrs by MTT assay; assay type: functional, cell-based; conditions: time hrs 24-72
A549 [24] = assay: Down regulation of alpha-SMA protein expression in human A549 cells at 50 uM by Western blotting analysis; assay type: functional, cell-based; conditions: time 24.0 hrs
A549 [25] = assay: Down regulation of vimentin protein expression in human A549 cells at 50 uM by Western blotting analysis; assay type: functional, cell-based; conditions: time 24.0 hrs
A549 [26] = assay: Up regulation of E-cadherin level in TGF-beta-stimulated human A549 cells at 50 uM by Western blot analysis; assay type: functional, cell-based; conditions: time 24.0 hrs
A549 [27] = assay: Antimigratory activity in human A549 cells assessed as inhibition of TGF-beta1 induced epithelial-mesenchymal transition at 50 uM pretreated with TGF-beta1 for 1 hr followed by compound addition and measured after 24 hrs by scratch wound healing based microscopic analysis; assay type: functional, cell-based
Mus musculus [28] = assay: Antifibrotic activity in C57BL/6 mouse model of bleomycin-induced lung fibrosis assessed as inhibition of pathological changes by measuring inflammatory infiltration in lung tissue at 25 to 50 mg/kg dosed via oral gavage for 14 days by Masson's trichrome staining-based histopathological analysis; assay type: functional, organism-based; conditions: dose mg/kg 25-50, time 14.0 day
A549 [29] = assay: Inhibition of cell migration in TGF-beta-stimulated human A549 cells at 50 uM after 24 hrs by optical microscopic based wound healing assay; assay type: functional

With O=c1c(O)c(-c2ccccc2)oc2cc(O)cc(O)c12 [GALANGIN] the Activity (Mus musculus [1]) was “Active”, the Activity (Mus musculus [2]) was “inactive” and the Activity (Mus musculus [3]) was “Dose-dependent effect”. The Activity (Mus musculus [4]) was “Active”, the Activity (Mus musculus [5]) was “inactive” and the Activity (Mus musculus [6]) was “Active”. For the same molecule, the Activity (Mus musculus [7]) was “inactive”, the Activity (Mus musculus [8]) was “Active” and the Activity (Mus musculus [9]) was “inactive”. For the same molecule, the Activity (Mus musculus [10]) was “Active”, the Activity (Mus musculus [11]) was “Active” and the Activity (Mus musculus [12]) was “Active”. The Activity (Mus musculus [13]) was “Active”, the Activity (Mus musculus [14]) was “Active” and the Activity (Mus musculus [15]) was “Active”. The Activity (Mus musculus [16]) was “Active”, the Activity (NIH3T3 [17]) was “Toxic” and the Activity (NIH3T3 [18]) was “Active”. For the same molecule, the Activity (NIH3T3 [19]) was “Active”, the Activity (NIH3T3 [20]) was “Active” and the Activity (Mus musculus [21]) was “Active”. For the same molecule, the Activity (NIH3T3 [22]) was “Active”, the Activity (A549 [23]) was “Active” and the Activity (A549 [24]) was “Active”. For the same molecule, the Activity (A549 [25]) was “Active”, the Activity (A549 [26]) was “Active” and the Activity (A549 [27]) was “Active”. The Activity (Mus musculus [28]) was “Active” and the inhibition (A549 [29]) was “Active”.
